Reference: BindingDB's records for patent US20230286970 (Italfarmaco, 2023)

Tests used:
Test in all cases: Enzymatic Activity Assay
Histone deacetylase 2 = Histone deacetylase 2 (Homo sapiens, UniProt Q92769)
Method: (§1) After a period of preincubation (incubation times and temperatures vary for different isoforms and are shown in table 1) 25 μL of solution containing the substrate were added. […] Enzymatic activity on recombinant human HDAC6 and HDAC1 was evaluated (Table 2) for each synthesized compound.

Histone deacetylase 1 = Histone deacetylase 1 (Homo sapiens, UniProt Q13547)
Histone deacetylase 1, sequence (Q13547 whole entry): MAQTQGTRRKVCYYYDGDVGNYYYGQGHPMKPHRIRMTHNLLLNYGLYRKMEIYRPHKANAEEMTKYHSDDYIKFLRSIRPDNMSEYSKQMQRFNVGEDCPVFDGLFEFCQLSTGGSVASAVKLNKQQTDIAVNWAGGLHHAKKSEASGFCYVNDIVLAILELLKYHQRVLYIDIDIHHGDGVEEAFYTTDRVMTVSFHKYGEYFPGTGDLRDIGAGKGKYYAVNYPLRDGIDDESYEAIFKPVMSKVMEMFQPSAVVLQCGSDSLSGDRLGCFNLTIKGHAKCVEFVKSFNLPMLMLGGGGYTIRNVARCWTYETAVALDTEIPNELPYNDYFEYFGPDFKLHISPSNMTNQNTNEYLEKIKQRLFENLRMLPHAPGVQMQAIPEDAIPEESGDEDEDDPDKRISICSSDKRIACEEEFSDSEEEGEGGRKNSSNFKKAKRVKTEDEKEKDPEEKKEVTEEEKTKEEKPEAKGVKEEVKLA
Method: as §1

Histone deacetylase 7 = molecular target: T1, Histone deacetylase 7 (Homo sapiens, UniProt Q8WUI4)
T1 sequence (Q8WUI4 whole entry): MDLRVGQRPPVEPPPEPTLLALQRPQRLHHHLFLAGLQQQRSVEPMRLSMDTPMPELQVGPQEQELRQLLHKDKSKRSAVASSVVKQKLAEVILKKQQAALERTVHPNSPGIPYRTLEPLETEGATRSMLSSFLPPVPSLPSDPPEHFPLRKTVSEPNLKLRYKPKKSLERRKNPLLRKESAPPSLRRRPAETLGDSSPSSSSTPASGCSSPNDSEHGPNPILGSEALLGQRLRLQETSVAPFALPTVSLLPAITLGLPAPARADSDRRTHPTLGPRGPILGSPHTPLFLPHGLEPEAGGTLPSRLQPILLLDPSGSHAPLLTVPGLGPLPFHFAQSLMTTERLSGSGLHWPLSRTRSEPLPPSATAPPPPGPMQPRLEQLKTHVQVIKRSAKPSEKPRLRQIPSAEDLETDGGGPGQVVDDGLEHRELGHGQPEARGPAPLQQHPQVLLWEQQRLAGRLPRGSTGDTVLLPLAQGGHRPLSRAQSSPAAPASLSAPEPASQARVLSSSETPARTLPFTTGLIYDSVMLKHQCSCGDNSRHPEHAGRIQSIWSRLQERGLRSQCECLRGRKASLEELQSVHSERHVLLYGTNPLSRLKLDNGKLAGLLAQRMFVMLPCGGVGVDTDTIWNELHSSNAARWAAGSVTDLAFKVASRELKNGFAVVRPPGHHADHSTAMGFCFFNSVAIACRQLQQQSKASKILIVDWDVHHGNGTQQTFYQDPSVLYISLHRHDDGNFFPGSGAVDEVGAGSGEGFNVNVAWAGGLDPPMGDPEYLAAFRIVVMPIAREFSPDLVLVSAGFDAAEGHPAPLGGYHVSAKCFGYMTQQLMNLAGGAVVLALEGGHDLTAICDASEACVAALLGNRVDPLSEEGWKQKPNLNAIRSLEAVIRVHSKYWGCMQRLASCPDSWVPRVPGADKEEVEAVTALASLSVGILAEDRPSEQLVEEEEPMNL
Method: as §1

Histone deacetylase 5 = Histone deacetylase 5 (Homo sapiens, UniProt Q9UQL6)
Histone deacetylase 5, sequence (Q9UQL6 whole entry): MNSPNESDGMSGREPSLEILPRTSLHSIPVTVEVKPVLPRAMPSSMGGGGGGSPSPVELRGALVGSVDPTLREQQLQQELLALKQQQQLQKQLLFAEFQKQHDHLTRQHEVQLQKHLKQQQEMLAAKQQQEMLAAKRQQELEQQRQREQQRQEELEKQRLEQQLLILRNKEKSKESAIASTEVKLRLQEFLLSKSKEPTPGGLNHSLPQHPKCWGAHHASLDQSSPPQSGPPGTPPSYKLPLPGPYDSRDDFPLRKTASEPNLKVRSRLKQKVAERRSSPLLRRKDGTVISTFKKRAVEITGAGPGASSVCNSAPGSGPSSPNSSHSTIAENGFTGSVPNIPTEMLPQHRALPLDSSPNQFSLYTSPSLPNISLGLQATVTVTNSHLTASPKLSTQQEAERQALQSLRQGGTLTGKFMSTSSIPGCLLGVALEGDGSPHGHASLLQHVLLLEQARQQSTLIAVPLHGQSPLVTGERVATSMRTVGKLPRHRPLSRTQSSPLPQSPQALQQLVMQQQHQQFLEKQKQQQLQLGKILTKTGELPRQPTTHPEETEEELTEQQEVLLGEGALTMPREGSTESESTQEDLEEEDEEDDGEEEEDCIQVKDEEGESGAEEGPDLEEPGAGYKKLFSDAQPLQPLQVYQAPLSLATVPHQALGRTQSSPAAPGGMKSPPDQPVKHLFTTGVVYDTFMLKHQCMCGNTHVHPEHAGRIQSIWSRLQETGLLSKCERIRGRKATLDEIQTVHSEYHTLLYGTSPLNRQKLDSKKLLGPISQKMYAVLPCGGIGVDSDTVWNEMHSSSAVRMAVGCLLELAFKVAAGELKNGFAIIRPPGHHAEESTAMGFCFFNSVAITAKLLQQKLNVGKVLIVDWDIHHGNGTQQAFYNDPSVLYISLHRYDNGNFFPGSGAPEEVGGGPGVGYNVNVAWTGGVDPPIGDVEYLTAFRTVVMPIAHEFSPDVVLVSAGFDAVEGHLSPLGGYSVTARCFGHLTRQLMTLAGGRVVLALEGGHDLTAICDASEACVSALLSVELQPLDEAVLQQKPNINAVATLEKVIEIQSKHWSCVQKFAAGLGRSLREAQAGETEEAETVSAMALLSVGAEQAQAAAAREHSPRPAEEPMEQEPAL
Method: as §1

Histone deacetylase 11 = molecular target: T2, Histone deacetylase 11 (Homo sapiens, UniProt Q96DB2)
T2 sequence (Q96DB2 whole entry): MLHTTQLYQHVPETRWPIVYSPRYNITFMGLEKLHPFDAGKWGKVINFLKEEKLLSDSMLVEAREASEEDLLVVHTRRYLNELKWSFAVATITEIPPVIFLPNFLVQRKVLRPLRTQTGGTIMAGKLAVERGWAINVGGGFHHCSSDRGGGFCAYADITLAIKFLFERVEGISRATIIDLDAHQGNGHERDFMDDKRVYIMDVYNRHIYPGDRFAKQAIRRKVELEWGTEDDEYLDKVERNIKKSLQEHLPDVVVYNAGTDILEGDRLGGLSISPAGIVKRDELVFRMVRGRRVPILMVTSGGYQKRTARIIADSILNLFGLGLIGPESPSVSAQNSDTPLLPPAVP
Method: as §1

[1] = molecular target: T3, Polyamine deacetylase HDAC10 (Homo sapiens, UniProt Q969S8)
T3 sequence (Q969S8 whole entry): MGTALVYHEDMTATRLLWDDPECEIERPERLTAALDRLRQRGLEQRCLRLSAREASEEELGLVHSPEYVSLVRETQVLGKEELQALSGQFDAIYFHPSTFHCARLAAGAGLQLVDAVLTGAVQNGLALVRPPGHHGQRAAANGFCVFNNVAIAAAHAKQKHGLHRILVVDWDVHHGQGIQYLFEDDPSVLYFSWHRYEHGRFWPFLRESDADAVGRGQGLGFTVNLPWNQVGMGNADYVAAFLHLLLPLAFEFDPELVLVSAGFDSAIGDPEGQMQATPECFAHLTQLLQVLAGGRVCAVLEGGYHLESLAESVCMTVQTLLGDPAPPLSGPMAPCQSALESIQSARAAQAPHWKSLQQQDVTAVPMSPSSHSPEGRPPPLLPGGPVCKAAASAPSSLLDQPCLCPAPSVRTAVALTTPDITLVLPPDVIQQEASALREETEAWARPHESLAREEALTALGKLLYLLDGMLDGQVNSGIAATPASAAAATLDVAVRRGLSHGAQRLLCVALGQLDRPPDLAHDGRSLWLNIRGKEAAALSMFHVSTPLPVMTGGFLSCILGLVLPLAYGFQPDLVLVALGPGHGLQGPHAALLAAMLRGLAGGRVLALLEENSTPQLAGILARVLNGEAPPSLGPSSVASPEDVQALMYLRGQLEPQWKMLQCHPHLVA
Method: as §1

Histone deacetylase 9 = Histone deacetylase 9 (Homo sapiens, UniProt Q9UKV0)
Histone deacetylase 9, sequence (Q9UKV0 whole entry): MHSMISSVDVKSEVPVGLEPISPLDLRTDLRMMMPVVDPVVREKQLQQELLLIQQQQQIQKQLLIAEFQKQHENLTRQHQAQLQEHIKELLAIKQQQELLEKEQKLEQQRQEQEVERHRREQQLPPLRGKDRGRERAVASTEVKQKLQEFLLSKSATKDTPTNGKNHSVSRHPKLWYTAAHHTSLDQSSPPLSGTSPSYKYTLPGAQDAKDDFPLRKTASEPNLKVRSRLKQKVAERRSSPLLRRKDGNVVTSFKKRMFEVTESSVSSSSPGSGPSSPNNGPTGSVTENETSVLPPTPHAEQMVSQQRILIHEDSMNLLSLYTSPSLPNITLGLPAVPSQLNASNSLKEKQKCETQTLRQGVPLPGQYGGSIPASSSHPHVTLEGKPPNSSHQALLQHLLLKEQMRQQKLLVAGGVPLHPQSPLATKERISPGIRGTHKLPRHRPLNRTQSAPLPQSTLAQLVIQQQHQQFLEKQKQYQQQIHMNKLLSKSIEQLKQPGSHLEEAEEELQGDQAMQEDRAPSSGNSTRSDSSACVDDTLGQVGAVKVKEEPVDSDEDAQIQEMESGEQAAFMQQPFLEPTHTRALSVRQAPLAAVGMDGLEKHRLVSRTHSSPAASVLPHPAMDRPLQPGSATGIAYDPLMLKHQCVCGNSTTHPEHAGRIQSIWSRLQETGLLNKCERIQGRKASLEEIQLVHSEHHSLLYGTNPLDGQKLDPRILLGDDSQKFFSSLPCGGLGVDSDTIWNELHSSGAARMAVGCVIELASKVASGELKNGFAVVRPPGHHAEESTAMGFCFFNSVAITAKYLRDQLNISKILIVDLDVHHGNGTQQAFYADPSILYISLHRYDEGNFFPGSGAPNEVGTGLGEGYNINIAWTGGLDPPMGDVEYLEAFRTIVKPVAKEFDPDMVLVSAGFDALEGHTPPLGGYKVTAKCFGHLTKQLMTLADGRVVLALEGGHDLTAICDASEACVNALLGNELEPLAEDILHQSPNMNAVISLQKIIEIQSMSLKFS
Method: as §1

Histone deacetylase 3 = Histone deacetylase 3 (Homo sapiens, UniProt O15379)
Histone deacetylase 3, sequence (O15379 whole entry): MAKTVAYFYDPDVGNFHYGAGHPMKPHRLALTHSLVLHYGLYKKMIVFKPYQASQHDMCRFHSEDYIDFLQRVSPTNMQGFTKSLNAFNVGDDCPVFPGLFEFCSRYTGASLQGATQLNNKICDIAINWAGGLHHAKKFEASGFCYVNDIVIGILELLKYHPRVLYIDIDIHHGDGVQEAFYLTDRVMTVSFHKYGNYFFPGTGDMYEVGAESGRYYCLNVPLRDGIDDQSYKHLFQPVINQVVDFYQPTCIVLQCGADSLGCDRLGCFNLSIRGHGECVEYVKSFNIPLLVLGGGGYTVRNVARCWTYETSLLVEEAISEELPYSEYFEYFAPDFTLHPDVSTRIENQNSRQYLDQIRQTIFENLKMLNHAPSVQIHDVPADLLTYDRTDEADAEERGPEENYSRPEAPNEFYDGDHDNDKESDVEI
Method: as §1

Histone deacetylase 8 = molecular target: T4, Histone deacetylase 8 (Homo sapiens, UniProt Q9BY41)
T4 sequence (Q9BY41 whole entry): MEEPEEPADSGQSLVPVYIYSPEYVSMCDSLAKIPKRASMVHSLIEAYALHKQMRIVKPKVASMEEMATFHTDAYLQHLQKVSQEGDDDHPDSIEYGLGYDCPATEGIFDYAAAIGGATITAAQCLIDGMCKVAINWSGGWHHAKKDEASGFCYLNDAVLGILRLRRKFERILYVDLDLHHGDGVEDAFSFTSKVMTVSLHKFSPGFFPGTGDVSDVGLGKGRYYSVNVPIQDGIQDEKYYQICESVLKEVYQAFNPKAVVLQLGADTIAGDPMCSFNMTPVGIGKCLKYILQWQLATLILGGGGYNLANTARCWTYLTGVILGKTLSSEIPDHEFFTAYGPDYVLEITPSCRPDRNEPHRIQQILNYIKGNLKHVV
Method: as §1

Histone deacetylase 2, sequence (Q92769 whole entry, canonical isoform): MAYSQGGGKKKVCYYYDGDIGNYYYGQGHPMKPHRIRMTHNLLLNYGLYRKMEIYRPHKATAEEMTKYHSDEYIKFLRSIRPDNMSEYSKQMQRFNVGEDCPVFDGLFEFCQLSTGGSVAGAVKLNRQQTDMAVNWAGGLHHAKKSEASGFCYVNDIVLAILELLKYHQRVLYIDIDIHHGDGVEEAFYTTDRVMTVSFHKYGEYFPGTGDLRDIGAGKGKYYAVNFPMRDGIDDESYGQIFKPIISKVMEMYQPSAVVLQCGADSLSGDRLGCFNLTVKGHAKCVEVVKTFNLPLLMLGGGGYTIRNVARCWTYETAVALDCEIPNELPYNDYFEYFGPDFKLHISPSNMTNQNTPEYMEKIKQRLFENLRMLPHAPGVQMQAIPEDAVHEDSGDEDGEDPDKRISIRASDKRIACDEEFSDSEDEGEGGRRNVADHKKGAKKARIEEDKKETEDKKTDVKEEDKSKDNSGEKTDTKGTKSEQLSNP

SMILES | IC50 (Histone deacetylase 2) [µM] | IC50 (Histone deacetylase 1) [µM] | IC50 (Histone deacetylase 7) [µM] | IC50 (Histone deacetylase 5) [µM] | IC50 (Histone deacetylase 11) [µM] | IC50 [1] [µM] | IC50 (Histone deacetylase 9) [µM] | IC50 (Histone deacetylase 3) [µM] | IC50 (Histone deacetylase 8) [µM]
Nc1ccc(-c2cn(Cc3ccc(-c4nnc(C(F)F)o4)c(F)c3)nn2)cn1 [US20230286970, Compound 15] | > 30 | > 200 | > 30 | > 30 | > 30 | > 30 | > 30 | > 30 | > 200
Nc1nc2ccc(-c3cn(Cc4ccc(-c5nnc(C(F)F)o5)cc4)nn3)cc2s1 [US20230286970, Compound 14] | > 30 | > 200 | > 30 | > 30 | > 30 | > 30 | > 30 | > 30 | > 200
